Experimental findings from paper PMC12606464, “Investigating NFE2L1 activators for targeted protein aggregate clearance: a follow-up study” (RSC Medicinal Chemistry, 2025) are described below.

Marks after values point to notes of the source that are not given here. Peptide text beside a SMILES is read from it. * marks the point of attachment. Cbz = O=C(OCc1ccccc1)*

Holding throughout (format): cell-based, human
One data set relates to SNCA-EGFP. Kind of data set: SNCA-EGFP degradation in SH-SY5Y cells. As for the experimental part:
This reporter is prone to aggregation because of its slow protein turnover. To assess compound efficacy, we measured the fluorescence signal of GFP-tagged synuclein within aggregates.
The GFP fluorescence signal was then normalized to that of the DMSO control and the cell number. The experiment was performed in at least five biological replicates. Statistical analysis was performed using paired t-tests with Holm–Šídák correction for multiple comparisons (α = […]
SH-SY5Y cells stably expressing SNCA-EGFP were seeded on a plate and allowed to […]
tadalafil (5 µM), or RUN compounds at a concentration of 1 µM or treated with an equivalent volume of DMSO dissolved in buffer as a vehicle control. The treatment was performed for 16 hours and then fluorescence was measured. The GFP signal intensity was normalized to both the DMSO control and the cell count.

For the next data set, the system named is NFE2L1 pathway. Kind of data set: 3×PSMA4-ARE-LUC dual luciferase reporter assay in HEK293 cells. As to conditions: Homo sapiens; 5 μM, 16 h, HEK293, luminescence relative to DMSO-treated cells; read-out: NFE2L1 activation [5 μM]. The source says: In our previous work,[43] we developed a library of NFE2L1 stimulators using a cell-based luciferase reporter assay. This system was based on three tandem copies of the antioxidant response element (ARE) derived from the NFE2L1 target gene proteasome subunit alpha type-4 (3xPSMA4, PSMA4-ARE-LUC). It was designed to detect the proteasome “bounce-back” response induced by proteasome inhibitors such as MG132 or bortezomib.[22,43,45,46] The reporter assay was adapted to a 384-well format and used to evaluate a new set of RUN compounds designed around the structural framework of the RUN-47 activator. We focused on identifying compounds that increased the 3×PSMA4-ARE-LUC signal (Fig. 1A), while simultaneously assessing cytotoxicity (see the SI, Fig. S2). […] In contrast, thiourea- and urea-containing derivatives generally produced only weak to intermediate responses, rarely exceeding a fold change of 7.
Fig. 1 (A) Targeted library screening of RUN compounds using the 3×PSMA4-ARE-LUC dual reporter assay in HEK293 cells. Cells were exposed to RUN compounds (5 μM) for 16 hours, and luciferase activity was measured. Data are presented as the mean ± SD from three independent experiments (n = 3). Results are shown as a fold change in luminescence relative to DMSO-treated cells. Selected hit compounds are highlighted in distinct colours. (B) RUN-89 specifically activates the NFE2L1 pathway. The DDI2 knockout (KO) and parental (WT) HCT116 cells were transfected with the 3×PSMA4-ARE-LUC reporter and treated with 0.5 μM bortezomib (BTZ) and 5 μM RUN-89 for 16 hours. Data are presented as the Geomean ± GeoSD of three independent experiments (n = 3). Statistical analysis was performed on log2-transformed values using two-way repeated-measures ANOVA followed by Šídak's multiple comparison test. (C) RUN-89 selectively triggers downstream signaling events associated with NFE2L1 gene expression. HEK293 cells were transfected with lipid nanoparticles (LNPs) carrying siRNAs targeting NFE2L1 or NFE2L2. LNPs formulated with non-targeting siRNA served as a negative control. Following 24 hours of incubation, cells were treated with 7.5 μM RUN-89 or DMSO (vehicle) for an additional 16 hours. Expression of the proteasomal subunit gene PSMC4 was then quantified by RT-qPCR. Data are shown as the Geomean ± GeoSD from three independent biological replicates (n = 3). Log2-transformed data were analyzed using two-way repeated-measures ANOVA with the Geisser–Greenhouse correction, followed by Tukey's multiple comparison test with individual variances computed for each comparison. Additional results for NFE2L1, NFE2L2, PSMB7, and PSMD12 are presented in SI Fig. S10.
Figure S1: Concentration–response of luciferase cell-based assay (PSMA4-ARE-luc2P reporter) on treatment with RUN-81, RUN-89, and RUN-94. Concentration is plotted on the X-axis. Dose–response relationships were analyzed using a four-parameter logistic curve (4PL), or a bell-shaped dose-response curve, both with weighting 1/Y^2. Dotted lines represent 95% confidence bands. Calculated EC₅₀ values, curve parameters, and asymmetrical confidence intervals are summarized in the accompanying table . Data are presented as mean ± SD from four independent experiments (n=4).
(§1) 2 Biology Experimental Procedures
(§2) Safety statement: No unexpected or unusually high safety hazards were encountered. […]
Most of the cell lines were cultured in Dulbecco's Modified Eagle Medium (DMEM) enriched with 10% fetal bovine serum (FBS) and 2 mM L-glutamine, under standard conditions of 37 °C with 5% CO₂. DNA transfection was performed with Lipofectamine 2000, following the manufacturer's instructions. Transgenic cells were then selected with either G418 (400 µg/mL) or hygromycin B (450 µg/mL), based on the selection marker encoded by the plasmid used. Cell viability was evaluated using the […]

The test system of the next data set is HEK293 cells. Kind of data set: alamarBlue cytotoxicity assessment in HEK293 cells. As to conditions: 16 h. The method, then:
Figure S2: Concentration-dependent cytotoxicity assessment of RUN compounds.
HEK293 cells were treated for 16 hours with increasing concentrations of RUN compounds (1.25 µM; 2.5 µM; 5; 7.5 and 10 µM) or DMSO (negative control). Cell viability was determined using the alamarBlue assay following the protocol of Riss.(1) Data are presented as means ± SD from three independent experiments (n = 3). Statistical analysis was done using repeated measures one-way ANOVA with Geisser–Greenhouse correction, followed by Dunnett’s multiple comparisons test. *p<0.05. Detailed results of the analysis are shown in […]
(1 picture or pasted object on this page, not shown here)
as §1, §2
Cell lines were sourced from the ATCC (USA) and/or ECACC (UK), namely HCT116 (human colorectal carcinoma), ATCC CCL-247 (RRID:CVCL_0291), HEK-293 (human embryonic kidney), ATCC CRL-1573 (RRID:CVCL_0045), SH-SY5Y (human neuroblastoma), ATCC CRL-2266 (RRID:CVCL_0019). The characteristics of DDI2 knockout cells derived from HCT116 cells have been described previously (Sedlacek et al., 2025). All cell lines were tested for mycoplasma contamination. Most of the cell lines were cultured in Dulbecco's Modified Eagle Medium (DMEM) enriched with 10% fetal bovine serum (FBS) and 2 mM L-glutamine, under standard conditions of 37 °C with 5% CO₂. DNA transfection was performed with Lipofectamine 2000, following the manufacturer's instructions. Transgenic cells were then selected with either G418 (400 µg/mL) or hygromycin B (450 µg/mL), based on the selection marker encoded by the plasmid used. […]
For orientation: Resazurin is reduced to fluorescent resorufin, in cell work by metabolically active cells.

The next data set relates to IRE1/XBP1s. Kind of data set: XBP1 endoplasmic reticulum stress reporter assay (CMV-XBP-GLuc). As to conditions: Figure S5; for Mean 2 (mean of log2-transformed values, treatment; DMSO = 0): N = 3; for Mean diff, DMSO vs. treatment (log2-transformed values): Dunnett's multiple comparisons test. The source says: Next, we investigated whether the selected RUN compounds activate the NFE2L1 transcriptional program without triggering the unfolded protein response (UPR), a crucial cellular process induced by the accumulation of unfolded proteins in the endoplasmic reticulum (ER), potentially leading to ER stress. To monitor this, an alternative reporter was used to assess the activation of IRE1/XBP1s.[47] IRE1 is a bifunctional serine/threonine kinase and endoribonuclease embedded in the ER membrane, playing a central role in UPR signaling. Its RNase activity facilitates the splicing of X-box binding protein 1 (XBP1) mRNA. The spliced XBP1 acts as a transcription factor, promoting the re-establishment of ER homeostasis by upregulating genes involved in the ER-associated degradation (ERAD) pathway.[48–50] The reporter contains Gaussia luciferase positioned out of frame downstream of the XBP1 splice site, ensuring that active luciferase translation occurs only in the presence of ER stress.[51,52] Cells transfected with this reporter were treated with RUN compounds at 1, 5, and 10 μM, and luciferase activity was measured.
Figure S5: Impact of RUN compounds on ER stress-induced activation of the XBP1 reporter.
HEK293 cells were transfected with the CMV-XBP-GLuc reporter plasmid and allowed to stabilize overnight. Following stabilization, the cells were treated with MG132 or various concentrations of the test compounds (1, 2, 3, 5, 7.5, and 10 µM) for 16 hours. The Gaussia luciferase signal, which reflects XBP1 mRNA splicing, was adjusted based on cell viability as measured by the alamarBlue assay. Data are represented as Geomean ± GeoSD of three independent experiments ( n = 3. Statistical comparison of MG132 and RUN compounds vs DMSO and RUN compounds vs MG132 was performed on log2-transformed values using two-way repeated-measures ANOVA with Geisser –Greenhouse correction, followed by Dunnett’s multiple comparisons test with individual variances computed for each comparison. Results of the analysis are shown in Supplementary Table S15. […]
GraphPad Prism (v 10.6.1).
2.8 XBP1-endoplasmic reticulum (ER) stress reporter assay
HEK293 cells were seeded in 6-well plates and incubated for 24 hours before being transfected with a plasmid containing the CMV-XBP-Gluc reporter using Lipofectamine 2000.(4) After 6 hours, the transfected cells were subsequently transferred to 384-well plates, stabilized overnight, and treated with the proteasome inhibitor and ER stress inducer MG132 and/or various concentrations of RUN compounds (1, 5, and 10 µM) or vehicle (DMSO) for 16 hours. Luciferase activity was normalized to cell viability, which was assessed using the alamarBlue assay. The results are expressed as the fold change compared with the DMSO control, with the experiment conducted in biological triplicate. […]
(In a reporter assay the amount or activity of a reporter protein is the signal.)

Setting [1] is: SH-SY5Y, SNCA-EGFP degron, Figure S7.
The mark [2] stands for this setting: HEK293, alamarBlue, concentration not given.

For `CN1CC(=O)N2[C@H](c3ccc4c(c3)OCO4)c3[nH]c4ccccc4c3C[C@@H]2C1=O` [tadalafil, reference compound], the “EGFP-SNCA aggregation (GFP signal)” value in the data set on SNCA-EGFP (SH-SY5Y SNCA-EGFP, 16 h, RUN compounds 1 μM, PD169316 3 μM, tadalafil 5 μM) is given as “reduction”. In the data set on SNCA-EGFP (setting [1]), the “Geometric mean of ratios (paired t tests, Treatment vs Control = 100)” value is on record as -20.51 and the “Geometric mean, Treatment (Control = 100)” value stood at 79.49.
Take `COc1ccc(/C=C2/C(=O)/C(=C/c3ccc(OC)c(OC)c3)C3CCC2N3CCN2CCOCC2)cc1OC` [RUN-79]: in the data set on NFE2L1 pathway, the fold induction at 5 µM turned out to be 0.9. Moreover, the “Tox [% of ctrl.]” value with HEK293 cells (human) is listed as 104% of ctrl.
Take `COc1ccc(/C=C2\CN(C(=O)C3CCCC3)C/C(=C\c3ccc(OC)c(OC)c3)C2=O)cc1OC` [RUN-103]: the fold induction at 5 µM in the data set with NFE2L1 pathway was 9.4. The “Tox [% of ctrl.]” value in the data set on HEK293 cells (setting [2]) is reported as 80% of ctrl.
The corresponding values for `CCN(CC)CC(=O)N1C/C(=C\c2ccc(OC)c(OC)c2)C(=O)/C(=C/c2ccc(OC)c(OC)c2)C1.O=C(O)C(F)(F)F` [RUN-116] are 3.1 and 78% of ctrl.
The like results for `COCCOCCOCC(=O)NC1C/C(=C\c2ccc(OC)c(OC)c2)C(=O)/C(=C/c2ccc(OC)c(OC)c2)C1` (stereo not shown) [RUN-88] were, in that order, 3.9 and 86% of ctrl.
Turning to `COc1ccc(/C=C2\CC(NC(=O)CCCN)C/C(=C\c3ccc(OC)c(OC)c3)C2=O)cc1OC.O=C(O)C(F)(F)F` (stereo not shown) [RUN-100], the fold induction at 5 µM with NFE2L1 pathway is 1.2. Moreover, the “Tox [% of ctrl.]” value in the data set on HEK293 cells (setting [2]) was 100% of ctrl.
For `CC(C)C[C@@H](C=O)NC(=O)[C@H](CC(C)C)NC(=O)[C@H](CC(C)C)NC(=O)OCc1ccccc1` [MG132] (Cbz-Leu-Leu-Leu-aldehyde), the “Mean 2 (mean of log2-transformed values, treatment; DMSO = 0)” value in the data set on IRE1/XBP1s (1 µM) is 2.106; in the data set with IRE1/XBP1s (5 µM), 2.725; in the data set with IRE1/XBP1s (10 uM), 3.956. In addition, the results for the “Mean diff, DMSO vs. treatment (log2-transformed values)” value with IRE1/XBP1s (DMSO vs. 1 µM), in the data set with IRE1/XBP1s (DMSO vs. 5 µM) and in the data set with IRE1/XBP1s (DMSO vs. 10 uM) were -2.106, -2.725 and -3.956, respectively.
For `CCN(CC)CC(=O)NC1C/C(=C\c2ccc(OC)c(OC)c2)C(=O)/C(=C/c2ccc(OC)c(OC)c2)C1` (stereo not shown) [RUN-102], the fold induction at 5 µM in the data set on NFE2L1 pathway is 1.3. In addition, the “Tox [% of ctrl.]” value with HEK293 cells (setting [2]) was 96% of ctrl.
Regarding `COc1ccc(/C=C2\CN(C(=O)CCN)C/C(=C\c3ccc(OC)c(OC)c3)C2=O)cc1OC` [RUN-117], the fold induction at 5 µM in the data set on NFE2L1 pathway came out at 1. Also, the “Tox [% of ctrl.]” value with HEK293 cells (setting [2]) is 83% of ctrl.
For the compound `COc1ccc(/C=C2\CN(C(=O)CCN(C)C)C/C(=C\c3ccc(OC)c(OC)c3)C2=O)cc1OC.O=C(O)C(F)(F)F` [RUN-114], the fold induction at 5 µM in the data set on NFE2L1 pathway came out at 3.1. Further, the “Tox [% of ctrl.]” value with HEK293 cells (setting [2]) was 92% of ctrl.
The like results for `COc1ccc(/C=C2\CN(C(=O)[C@@H]3CCC(=O)N3)C/C(=C\c3ccc(OC)c(OC)c3)C2=O)cc1OC` [RUN-110] were, in that order, 1.8 and 85% of ctrl.
In the case of `COc1ccc(/C=C2\CN(C(=O)c3ncccc3C)C/C(=C\c3ccc(OC)c(OC)c3)C2=O)cc1OC` [RUN-107], the fold induction at 5 µM in the data set with NFE2L1 pathway is 5. Besides, the “Tox [% of ctrl.]” value in the data set with HEK293 cells (setting [2]) is given as 73%* % of ctrl.
The corresponding values for `COc1ccc(/C=C2\CN(C(=O)CN3CCN(C)CC3)C/C(=C\c3ccc(OC)c(OC)c3)C2=O)cc1OC` [RUN-105] are 4.5 and 78% of ctrl.
